The values that follow come from article PMC10925992 (Heliyon, 2024).

The target in experiment [1] is catalytic domain of USP7 (USP7-CD) (Homo sapiens, UniProt Q93009). Briefly: STD-NMR titration for dissociation constant. The experiment is classed as binding.
The next experiment addresses USP7-CD (Homo sapiens, UniProt Q93009). Briefly: Thermal shift assay. Conditions: decrease of Tm of USP7-CD, USP7 10 μM, ligand 1 mM.
Experiment [2] relates to USP7, MDM2 and c-Myc mRNA in HCT-116 cells. Description: Quantitative gene expression analysis. Format: cell-based, human. The following applies: HCT116, compound at IC50 concentration, 48 h, versus untreated cells.
The test system of experiment [3] is p53 mRNA in HCT-116 cells. Description: Quantitative gene expression analysis. The experiment is classed as cell-based, human. Conditions: HCT116, compound at IC50 concentration, 48 h, versus untreated cells.
Another experiment relates to HCT116 cells. Description: MTT anti-proliferation assay. The experiment is classed as cell-based, human. The following applies: for IC50: Homo sapiens, HCT-116, 48 h; for inhibition of proliferation of cancerous cells: HCT116, MTT, 48 h.
A further experiment has as its system USP7. The following applies: read-out: IC50 of USP7 inhibition; no reference given; cited from earlier work.

Counter-ions that a name gives are not always drawn.

USP7-CD, sequence (Q93009 208-560): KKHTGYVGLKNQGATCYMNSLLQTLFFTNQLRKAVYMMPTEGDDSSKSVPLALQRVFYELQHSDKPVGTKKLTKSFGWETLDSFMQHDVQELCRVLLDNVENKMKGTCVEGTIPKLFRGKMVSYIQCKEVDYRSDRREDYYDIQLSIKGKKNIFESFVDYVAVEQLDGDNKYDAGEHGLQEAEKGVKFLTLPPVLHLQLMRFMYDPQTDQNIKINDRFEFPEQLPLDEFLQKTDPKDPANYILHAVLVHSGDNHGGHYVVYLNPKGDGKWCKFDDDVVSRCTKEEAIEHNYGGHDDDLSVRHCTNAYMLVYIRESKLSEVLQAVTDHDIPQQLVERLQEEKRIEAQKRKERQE
catalytic domain of USP7 (USP7-CD), sequence (Q93009 208-560): as above

Usually Kd stands for the equilibrium constant for the complex coming apart. High values mean a looser complex, low ones a tighter complex. Take `Nc1c(CC(=O)O)cccc1C(=O)c1ccc(Br)cc1` [Compound 1, Bromfenac Sodium]: the Kd in experiment [1] was found to be 780 ± 530 µM.

`O=C(O)Cc1ccccc1Nc1c(Cl)cccc1Cl` [Compound 2, Diclofenac Sodium]: the “Thermal Shift (Δtm)” value at USP7-CD was 2.40 °C. The compound also returned a dissociation constant Kd in experiment [1] of 760 ± 560 µM.

Turning to `CC(C(=O)O)c1cccc(C(=O)c2ccccc2)c1` (stereo not shown) [Compound 3, Ketoprofen], binding in experiment [1] was characterised by a dissociation constant (Kd) of 620 ± 560 µM.

As to `CC(CCc1ccccc1)NCC(O)c1ccc(O)c(C(N)=O)c1` (stereo not shown) [Compound 4, Labetalol Hydrochloride], the “Thermal Shift (Δtm)” value at USP7-CD was 3.95 °C. The same compound had a Kd in experiment [1] of 910 ± 700 µM.

Turning to `CCN(CC)CC#CCOC(=O)C(O)(c1ccccc1)C1CCCCC1` (stereo not shown) [Compound 6, Oxybutynin HCl], the “mRNA expression of proto-oncogenes (USP7, MDM2, c-Myc)” value (from here on “mRNA expression of proto-oncogenes”) in experiment [2] is “significantly decreased”. The compound further showed a Kd in experiment [1] of 660 ± 460 µM.

As a reminder, the IC50 is the midpoint of a concentration-inhibition curve. For the compound `CN1CCC(=C2c3ccccc3CC(=O)c3sccc32)CC1` [Compound 7, Ketotifen], the “mRNA expression of proto-oncogenes” value in experiment [2] is on record as “significantly decreased”. Further, in experiment [1], binding was put at a Kd of 1100 ± 880 µM. Besides, the “mRNA expression of tumor suppressor gene (p53)” value in experiment [3] is on record as “non-significantly”. This compound also yielded an IC50 in the experiment on HCT116 cells of 89 ± 1.55 µM.

For the compound `Clc1ccccc1CN1CCc2sccc2C1` [Compound 8, Ticlopidine Hydrochloride], in experiment [1], the Kd was found to be 1490 ± 1410 µM. For the same compound, in the experiment on HCT116 cells, the “inhibition of proliferation of cancerous cells” value was “inactive”.

For the compound `Nc1nnc(-c2cccc(Cl)c2Cl)c(N)n1` [Compound 9, Lamotrigine], binding in experiment [1] was characterised by a dissociation constant (Kd) of 1000 ± 560 µM. Besides, the “inhibition of proliferation of cancerous cells” value with HCT116 cells is “inactive”.

For the compound `COc1ccnc(C[S+]([O-])c2nc3ccc(OC(F)F)cc3[nH]2)c1OC` (stereo not shown) [Compound 10, Pantoprazole Sodium], the “mRNA expression of proto-oncogenes” value in experiment [2] was “significantly decreased”. Binding in experiment [1] was characterised by a dissociation constant (Kd) of 870 ± 280 µM. The compound further yielded an IC50 with HCT116 cells of 222 ± 0.29 µM.

In the case of `CN(C)CCC[C@@]1(c2ccc(F)cc2)OCc2cc(C#N)ccc21` [Compound 11, Escitalopram], in experiment [2], the “mRNA expression of proto-oncogenes” value is “significantly decreased”. In addition, the Kd in experiment [1] came out at 1220 ± 1120 µM. Also, the “mRNA expression of tumor suppressor gene (p53)” value in experiment [3] was “non-significantly”. Further, the IC50 in the experiment on HCT116 cells amounted to 227.6 ± 0.71 µM.

As for `N#Cc1nc2c(nc1C#N)-c1ccc(Cl)cc1C2=O` [HBX 41108], at USP7-CD (listed as 12), the “Thermal Shift (Δtm)” value amounted to 6.20 °C. Moreover, the IC50 in the experiment with USP7 was 0.424 µM.
